In ChEMBL document CHEMBL5325395, “Design, synthesis and anti-ovarian cancer activities of thieno[2,3-d]pyrimidine based chimeric BRD4 inhibitor/nitric oxide-donator” (Eur J Med Chem, 2023):
Calls of active or inactive are those of the source. No cut-off for these calls is given here.

Experiments:
[1] = biological target: T1, Bromodomain-containing protein 4 (Homo sapiens, UniProt O60885); experiment: Inhibition of BRD4 (unknown origin)
[2] = test system: SK-OV-3; experiment: Antiproliferative activity against human SK-OV-3 cells assessed as reduction in cell viability incubated for 24 hrs by CCK8 assay; type: functional, cell-based; conditions: SK-OV-3, 24 h
[3] = test system: OVCAR-3; experiment: Antiproliferative activity against human OVCAR-3 cells assessed as reduction in cell viability incubated for 24 hrs by CCK8 assay; type: functional, cell-based; conditions: OVCAR-3, 24 h
[4] = test system: SW626; experiment: Antiproliferative activity against human SW626 cells assessed as reduction in cell viability incubated for 24 hrs by CCK8 assay; type: functional, cell-based; conditions: SW626, 24 h
[5] = test system: ES-2; experiment: Antiproliferative activity against human ES2 cells assessed as reduction in cell viability incubated for 24 hrs by CCK8 assay; type: functional, cell-based; conditions: ES-2, 24 h
[6] = test system: A2780; experiment: Antiproliferative activity against human A2780 cells assessed as reduction in cell viability incubated for 24 hrs by CCK8 assay; type: functional, cell-based; conditions: A2780, 24 h
[7] = test system: SK-OV-3; experiment: Induction of apoptosis in human SK-OV-3 cells assessed as upregulation of cleaved caspase 3 protein expression at 1 to 2 uM incubated for 24 hrs by Western blotting analysis; type: functional, cell-based; conditions: dose 1-2 µM
[8] = Induction of NO release in phosphate buffer at 0.5 hrs by Griess reagent based spectrophotometer analysis; type: functional
[9] = Induction of NO release in phosphate buffer at 1 hr by Griess reagent based spectrophotometer analysis; type: functional
[10] = Induction of NO release in phosphate buffer at 2 hrs by Griess reagent based spectrophotometer analysis; type: functional
[11] = Induction of NO release in phosphate buffer at 3 hrs by Griess reagent based spectrophotometer analysis; type: functional
[12] = Induction of NO release in phosphate buffer at 4 hrs by Griess reagent based spectrophotometer analysis; type: functional
[13] = Induction of NO release in phosphate buffer at 6 hrs by Griess reagent based spectrophotometer analysis; type: functional
[14] = Induction of NO release in phosphate buffer at 24 hrs by Griess reagent based spectrophotometer analysis; type: functional
[15] = biological target: T2, Bromodomain-containing protein 2 (Homo sapiens, UniProt P25440); experiment: Inhibition of BRD2 bromodomain 1 (unknown origin) by Alphascreen based method
T2 sequence (P25440 whole entry): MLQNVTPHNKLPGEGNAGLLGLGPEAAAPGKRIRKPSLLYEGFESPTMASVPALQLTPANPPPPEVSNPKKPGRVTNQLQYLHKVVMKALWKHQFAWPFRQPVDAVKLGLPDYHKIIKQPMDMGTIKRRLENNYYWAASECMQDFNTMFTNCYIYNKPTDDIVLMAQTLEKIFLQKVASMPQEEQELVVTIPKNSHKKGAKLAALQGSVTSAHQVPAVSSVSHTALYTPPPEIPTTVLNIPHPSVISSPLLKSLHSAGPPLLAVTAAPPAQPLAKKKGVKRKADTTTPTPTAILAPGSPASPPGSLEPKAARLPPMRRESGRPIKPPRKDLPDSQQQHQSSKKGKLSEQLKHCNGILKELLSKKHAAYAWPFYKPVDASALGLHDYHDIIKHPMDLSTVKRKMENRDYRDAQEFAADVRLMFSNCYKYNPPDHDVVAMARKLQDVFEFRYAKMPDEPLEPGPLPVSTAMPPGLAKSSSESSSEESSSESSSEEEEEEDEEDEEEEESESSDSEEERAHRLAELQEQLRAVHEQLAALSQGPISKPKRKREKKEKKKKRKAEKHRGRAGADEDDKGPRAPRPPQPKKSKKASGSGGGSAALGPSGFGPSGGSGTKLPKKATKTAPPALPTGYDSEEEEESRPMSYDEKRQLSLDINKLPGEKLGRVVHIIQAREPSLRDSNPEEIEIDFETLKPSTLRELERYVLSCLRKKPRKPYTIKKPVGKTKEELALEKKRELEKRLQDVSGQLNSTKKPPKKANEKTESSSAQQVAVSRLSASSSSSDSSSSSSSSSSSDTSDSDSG

[16] = biological target: T2, Bromodomain-containing protein 2; experiment: Inhibition of BRD2 bromodomain 2 (unknown origin) by Alphascreen based method
[17] = biological target: T3, Bromodomain-containing protein 3 (Homo sapiens, UniProt Q15059); experiment: Inhibition of BRD3 bromodomain 1 (unknown origin) by Alphascreen based method
T3 sequence (Q15059 whole entry): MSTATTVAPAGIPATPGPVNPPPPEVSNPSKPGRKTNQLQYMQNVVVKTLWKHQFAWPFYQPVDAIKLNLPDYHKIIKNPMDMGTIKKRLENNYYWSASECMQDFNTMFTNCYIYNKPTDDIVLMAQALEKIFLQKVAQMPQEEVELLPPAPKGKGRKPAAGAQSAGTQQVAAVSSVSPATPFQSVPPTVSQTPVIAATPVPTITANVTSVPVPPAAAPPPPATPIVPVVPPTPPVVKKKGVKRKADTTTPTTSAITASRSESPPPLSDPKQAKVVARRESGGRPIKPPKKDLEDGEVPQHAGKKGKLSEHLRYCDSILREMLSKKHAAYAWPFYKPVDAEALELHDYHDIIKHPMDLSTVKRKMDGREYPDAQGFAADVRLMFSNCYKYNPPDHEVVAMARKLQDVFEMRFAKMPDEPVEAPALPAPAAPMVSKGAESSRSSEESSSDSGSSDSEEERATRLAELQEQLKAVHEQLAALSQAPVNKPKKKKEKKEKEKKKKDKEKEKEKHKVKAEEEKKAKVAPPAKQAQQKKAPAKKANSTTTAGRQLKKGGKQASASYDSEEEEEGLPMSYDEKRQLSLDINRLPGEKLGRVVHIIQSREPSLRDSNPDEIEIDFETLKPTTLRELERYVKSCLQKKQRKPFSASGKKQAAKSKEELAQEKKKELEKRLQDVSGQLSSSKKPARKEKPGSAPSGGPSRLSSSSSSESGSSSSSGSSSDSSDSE

[18] = biological target: T3, Bromodomain-containing protein 3; experiment: Inhibition of BRD3 bromodomain 2 (unknown origin) by Alphascreen based method
[19] = biological target: T1, Bromodomain-containing protein 4; experiment: Inhibition of BRD4 bromodomain 1 (unknown origin) by Alphascreen based method
[20] = biological target: T1, Bromodomain-containing protein 4; experiment: Inhibition of BRD4 bromodomain 2 (unknown origin) by Alphascreen based method
[21] = biological target: Bromodomain testis-specific protein (Homo sapiens, UniProt Q58F21); experiment: Inhibition of BRDT bromodomain 1 (unknown origin) by Alphascreen based method
[22] = biological target: T2, Bromodomain-containing protein 2; experiment: Binding affinity to BRD2 BD1 (unknown origin) by thermal denaturation assay
[23] = biological target: T2, Bromodomain-containing protein 2; experiment: Binding affinity to BRD2 BD2 (unknown origin) by thermal denaturation assay
[24] = biological target: T1, Bromodomain-containing protein 4; experiment: Binding affinity to BRD4 BD1 (unknown origin) by thermal denaturation assay
[25] = biological target: T1, Bromodomain-containing protein 4; experiment: Binding affinity to BRD4 BD2 (unknown origin) by thermal denaturation assay
[26] = test system: SK-OV-3; experiment: Induction of apoptosis in human SK-OV-3 cells assessed as viable cells at 1 uM incubated for 24 hrs by Annexin V and PI staining based flow cytometry analysis (reference value: 99.8 %); type: functional; conditions: read-out: Activity
[27] = test system: SK-OV-3; experiment: Induction of apoptosis in human SK-OV-3 cells assessed as early apoptotic cells at 1 uM incubated for 24 hrs by Annexin V and PI staining based flow cytometry analysis (reference value: 0.020 %); type: functional
[28] = test system: SK-OV-3; experiment: Induction of apoptosis in human SK-OV-3 cells assessed as late apoptotic cells at 1 uM incubated for 24 hrs by Annexin V and PI staining based flow cytometry analysis (reference value: 0 %); type: functional
[29] = test system: SK-OV-3; experiment: Induction of apoptosis in human SK-OV-3 cells assessed as necrotic cells at 1 uM incubated for 24 hrs by Annexin V and PI staining based flow cytometry analysis (reference value: 0.15 %); type: functional
[30] = test system: SK-OV-3; experiment: Induction of apoptosis in human SK-OV-3 cells assessed as viable cells at 2 uM incubated for 24 hrs by Annexin V and PI staining based flow cytometry analysis (reference value: 99.8 %); type: functional; conditions: read-out: Activity
[31] = test system: SK-OV-3; experiment: Induction of apoptosis in human SK-OV-3 cells assessed as early apoptotic cells at 2 uM incubated for 24 hrs by Annexin V and PI staining based flow cytometry analysis (reference value: 0.020 %); type: functional
[32] = test system: SK-OV-3; experiment: Induction of apoptosis in human SK-OV-3 cells assessed as late apoptotic cells at 2 uM incubated for 24 hrs by Annexin V and PI staining based flow cytometry analysis (reference value: 0 %); type: functional
[33] = test system: SK-OV-3; experiment: Induction of apoptosis in human SK-OV-3 cells assessed as necrotic cells at 2 uM incubated for 24 hrs by Annexin V and PI staining based flow cytometry analysis (reference value: 0.15 %); type: functional
[34] = test system: SK-OV-3; experiment: Induction of autophagy in human SK-OV-3 cells assessed as GFP-LC3 aggregation incubated for 24 hrs by confocal fluorescence microscopy analysis; type: functional, cell-based
[35] = test system: SK-OV-3; experiment: Induction of autophagy in human SK-OV-3 cells assessed as GFP-LC3 aggregation incubated for 24 hrs by transmission electron microscopy analysis; type: functional, cell-based
[36] = test system: SK-OV-3; experiment: Induction of autophagy in human SK-OV-3 cells assessed as appearance of autophagic vacuoles incubated for 24 hrs by confocal fluorescence microscopy analysis; type: functional, cell-based
[37] = test system: SK-OV-3; experiment: Induction of autophagy in human SK-OV-3 cells assessed as appearance of autophagic vacuoles incubated for 24 hrs by transmission electron microscopy analysis; type: functional, cell-based
[38] = test system: SK-OV-3; experiment: Induction of apoptosis in human SK-OV-3 cells assessed as upregulation of cytochrome-C protein expression at 1 to 2 uM incubated for 24 hrs by Western blotting analysis; type: functional, cell-based; conditions: dose 1-2 µM
[39] = test system: SK-OV-3; experiment: Induction of apoptosis in human SK-OV-3 cells assessed as downregulation of Bcl-2 protein expression at 1 to 2 uM incubated for 24 hrs by Western blotting analysis; type: functional, cell-based; conditions: dose 1-2 µM
[40] = test system: SK-OV-3; experiment: Induction of apoptosis in human SK-OV-3 cells assessed as upregulation of LC3II/I protein expression at 1 to 2 uM incubated for 24 hrs by Western blotting analysis; type: functional, cell-based; conditions: dose 1-2 µM
[41] = test system: SK-OV-3; experiment: Induction of apoptosis in human SK-OV-3 cells assessed as upregulation of p62/SQSTM1 protein expression at 1 to 2 uM incubated for 24 hrs by Western blotting analysis; type: functional, cell-based; conditions: dose 1-2 µM
[42] = test system: SK-OV-3; experiment: Induction of apoptosis in human SK-OV-3 cells assessed as upregulation of Beclin1 protein expression at 1 to 2 uM incubated for 24 hrs by Western blotting analysis; type: functional, cell-based; conditions: dose 1-2 µM
[43] = test system: SK-OV-3; experiment: Induction of autophagy in human SK-OV-3 cells assessed as increase in autophagosomes at 2 umol/L incubated for 24 hrs by immunofluorescence analysis; type: functional, cell-based; conditions: dose 2.0 µmol/L
[44] = test system: SK-OV-3; experiment: Induction of autophagy in human SK-OV-3 cells assessed as reduction in GFP-LC3 labeled lysosomes at 2 umol/L incubated for 24 hrs by immunofluorescence analysis; type: functional, cell-based; conditions: dose 2.0 µmol/L
[45] = test system: SK-OV-3; experiment: Induction of autophagy in human SK-OV-3 cells assessed as reduction in LAMP1 labeled lysosomes at 2 umol/L incubated for 24 hrs by immunofluorescence analysis; type: functional, cell-based; conditions: dose 2.0 µmol/L
[46] = biological target: T1, Bromodomain-containing protein 4; experiment: Inhibition of BRD4 in human SK-OV-3 cells assessed as reduction in BRD4 protein expression by Western blot analysis; type: cell-based
[47] = biological target: T1, Bromodomain-containing protein 4; experiment: Inhibition of BRD4 in human SK-OV-3 cells assessed as reduction in c-Myc protein expression by Western blot analysis; type: cell-based
[48] = test system: SK-OV-3; experiment: Antitumor activity against human SK-OV-3 cells xenografted in Balb/c nude mouse assessed as tumor growth inhibition at 30 mg/kg, ip administered for 19 days; type: functional, organism-based; conditions: time 19.0 day
[49] = Toxicity in BALB/c mouse xenografted with human SK-OV-3 cells assessed as change in body weight at 30 mg/kg, ip administered for 19 days; type: organism-based; conditions: in vivo, 456 h, time 19 day
[50] = test system: SK-OV-3; experiment: Antitumor activity against human SK-OV-3 cells xenografted in BALB/c nude mouse assessed as reduction in Ki-67 expression at 30 mg/kg, ip administered for 19 days by immunohistochemical analysis; type: functional, organism-based; conditions: time 19.0 day
[51] = test system: Mus musculus; experiment: In vivo inhibition of BRD4 in BALB/c nude mouse xenografted with human SK-OV-3 cells assessed as reduction in c-Myc expression at 30 mg/kg, ip administered for 19 days by immunohistochemical analysis; type: functional, organism-based; conditions: time 19.0 day
[52] = test system: SK-OV-3; experiment: Antitumor activity against human SK-OV-3 cells xenografted in BALB/c nude mouse assessed as increase in tumor cell apoptosis at 30 mg/kg, ip administered for 19 days by TUNEL staining based analysis; type: functional, organism-based; conditions: time 19.0 day

IC50 [1]: 0.82 µM
IC50 [2]: 1.38 µM
IC50 [3]: 2.69 µM
IC50 [4]: 8.47 µM
IC50 [6]: 3.44 µM
IC50 [15]: 15.9 µM
IC50 [16]: > 20 µM
IC50 [17]: > 20 µM
IC50 [18]: > 20 µM
IC50 [19]: 0.82 µM
IC50 [20]: 1.94 µM
IC50 [21]: > 20 µM
Kd [22]: 7.43 µM
Kd [23]: 17.5 µM
Kd [24]: 0.419 µM
Kd [25]: 0.686 µM
inhibition [46]: Active
inhibition [47]: Active
Compound: Cc1cc(-c2nc3sc4c(c3c(=O)[nH]2)CCN(C)C4)cc(C)c1OCC(=O)OCc1c(-c2ccccc2)no[n+]1[O-]
IC50 [5]: 3.44 µM
Activity [7]: Active
Activity [8]: 0.061 µmol/L
Activity [9]: 0.055 µmol/L
Activity [10]: 0.054 µmol/L
Activity [11]: 0.072 µmol/L
Activity [12]: 0.095 µmol/L
Activity [13]: 0.111 µmol/L
Activity [14]: 0.258 µmol/L
viability at 1 µM [26]: 88.9%
Activity [27]: 6.15%
Activity [28]: 4.5%
Activity [29]: 1.2%
viability at 2 µM [30]: 85.1%
Activity [31]: 8.84%
Activity [32]: 5.21%
Activity [33]: 1.03%
Activity [34]: Active
Activity [35]: Active
Activity [36]: Active
Activity [37]: Active
Activity [38]: Active
Activity [39]: Active
Activity [40]: Active
Activity [41]: Active
Activity [42]: Active
Activity [43]: Active
Activity [44]: Active
Activity [45]: Active
Activity [48]: Active
Activity [49]: Non-Toxic
Activity [50]: Active
inhibition [51]: Active
Activity [52]: Active
